# From article PMC8783508, “A novel D-amino acid peptide with therapeutic potential (ISAD1) inhibits aggregation of neurotoxic disease-relevant mutant Tau and prevents Tau toxicity in vitro” (Alzheimer's Research & Therapy, 2022)
# Non-standard residues stand in square brackets, D forms with d. Residues, ends and D or L forms follow the SMILES beside them.
# Assays:
# [1] = system: N2a cells expressing Tau^RDΔK; test: Uptake of FAM-labeled D-peptides by confocal microscopy; format: cell-based; details: 25 μM FAM-labeled peptide, 24 h, fixed cells
# Description: In order to become potentially suitable for therapeutic development, the D-peptides should be internalized by neurons. To test this, 25 μM FAM-labeled ISAD1 or its inversed form was added to cells that express pro-aggregant mutant Tau^RDΔK for 24 h followed by cell fixation.
# Fig. 7 Uptake of fluorescence-labeled D-peptides analyzed by confocal microscopy. 25 μM FAM-labeled peptides (ISAD1 and ISArev) were incubated with N2a cells expressing Tau^RDΔK for 24 h. The uptake of D-peptides was analyzed by confocal microscopy. As shown in the representative images, the peptides are mainly localized in the cytoplasm (A1, B1 Draq5 shown as red; A2 ISAD1-FAM, B2 ISAD1rev-FAM; A3, B3 merged images)
# [2] = system: N2a-Tau^RDΔK cells; test: MTT cytotoxicity of the peptides alone; format: cell-based; details: 25, 50, 100, 250 μM peptide, 24 h, n = 3
# Description: Cell viability was analyzed in accordance with the manufacturer’s protocol (Roche Diagnostics, Mannheim, Germany; cell proliferation kit II (MTT)). This assay is based on the cleavage of the yellow tetrazolium salt MTT into purple formazan dye by metabolic active cells. The color changes only in viable cells and can be directly quantified using a scanning multiwell spectrophotometer. In all experiments, the cells were grown as described previously. The cells (25,000 cells/well or 80% confluence) were plated on poly D-lysine-coated 96-well plates (Greiner Bio-One GmbH, Frickenhausen, Germany) for stronger attachment from overnight to 24 h at 37 °C. Fibrillized Tau^RDΔK was generated by incubating 200 μM Tau^RDΔK in BES buffer at 37 °C for 24 h in the presence of 2 mM D-peptides (Tau^RDΔK:peptide = 1:10). Successful fibrillization was verified using ThS (5 μM Tau^RDΔK, 10 μM ThS) measurement. The aggregated Tau^RDΔK (10 μM final concentration), Tau^RDΔK (10 μM) + peptide (100 μM) samples (ISAD1 and ISAD1rev), buffer only (negative control, set to 100% cell viability), and TritonX-100 (2%, cytotoxic agent, positive control) were incubated on N2a-Tau^RDΔK cells (100 μl solution) for another 24 h. The cell viability was measured in accordance with the manufacturer’s protocol.
# A MTT-based cytotoxicity assay in the presence of ISAD1 and ISAD1rev peptides. […]
# [3] = system: N2a-Tau^RDΔK cells; test: LDH release with the peptides alone; format: cell-based; details: 25, 50, 100, 250 μM peptide, 24 h, n = 3
# Description: N2a cells expressing Tau^RDΔK were plated on poly D-lysine-coated 96-well plates with a density of 25,000 cells/well. At 70 to 80% confluence, the cells were treated for 24 h with various concentrations of D-peptides (25, 50, 100, and 250 μM) or Tau^RDΔK (10 μM final concentration) in the presence of ISAD1 and ISAD1rev (100 μM final concentration). The ability of D-peptides to neutralize the toxicity of Tau^RDΔK oligomers/fibrils was investigated by measuring the amount of released LDH (Roche Diagnostics, Mannheim, Germany). Therefore, 50 μL of each well was transferred to a fresh 96-well plate and 50 μL of reagent was added followed by a 30-min incubation period at RT. Finally, 50 μL of stop solution (1 N HCl) was added and absorbance was recorded at 492 nm (TECAN spectrofluorometer, Männedorf, Switzerland). Absorbance values were corrected by background values and the percentage of LDH release was calculated.
# [4] = target: T1, Tau^FL (Homo sapiens, UniProt P10636); test: Fibrillization of Tau^FL monitored by ThT assay; format: biochemical; design: key to Inhibition of Tau^FL aggregation: (+/-) indicates comparably low inhibition of Tau^FL fibrillization; (-) indicates that the peptide showed no effect on fibril formation; details: L-peptides
# T1 construct: Tau^FL Full-length human Tau (441 AA); made in house
# T1 sequence (P10636 1-441 isoform P10636-8): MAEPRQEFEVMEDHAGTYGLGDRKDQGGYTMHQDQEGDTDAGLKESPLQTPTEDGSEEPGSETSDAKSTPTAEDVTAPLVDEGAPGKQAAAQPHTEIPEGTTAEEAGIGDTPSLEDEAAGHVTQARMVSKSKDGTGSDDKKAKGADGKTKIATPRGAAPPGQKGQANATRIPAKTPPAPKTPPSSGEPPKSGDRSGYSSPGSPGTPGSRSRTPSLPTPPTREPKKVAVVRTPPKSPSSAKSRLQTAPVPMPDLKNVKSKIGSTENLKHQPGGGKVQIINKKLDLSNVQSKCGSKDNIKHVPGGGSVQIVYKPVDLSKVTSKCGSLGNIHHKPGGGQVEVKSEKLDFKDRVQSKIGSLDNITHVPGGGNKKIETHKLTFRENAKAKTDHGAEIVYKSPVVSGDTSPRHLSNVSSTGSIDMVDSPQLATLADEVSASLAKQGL
# Description: Tau aggregation assays were performed under reducing conditions. Before the addition of heparin and peptides, a final concentration of 1 mM dithiothreitol (DTT) was added to the Tau protein solution and heated at 95 °C for 10 min. […] Final concentration of 10 μM ThT was used for monitoring fibrillization. In case of the two hexapeptides, 5 μM PHF6 and 5 μM PHF6*, respectively, without addition of the aggregation inducer heparin (16000 Da) were used for monitoring the fibrillization process. The assays were performed with 50-μl sample volume per well in a 96-well half area microtiter plate (Greiner Bio-One GmbH, Frickenhausen, Germany). The fibrillization of Tau^FL was monitored by ThT, and the relative fluorescence intensity of ThT was read out at 440 excitation/521 emission nm in a BMG microplate reader (BMG Labtech, Ortenberg, Germany).
# [5] = target: T1, Tau^FL; test: ELISA of FAM-labeled peptide binding to Tau^FL; details: FAM-labelled peptide 0.1 – 200 µM, Tau^FL 5 µg/ml, n = 3
# Description: A 96-well microtiter plate (Greiner Bio-One GmbH, Frickenhausen, Germany) was coated with 5 μg/ml Tau^FL or fibrils in coating buffer for incubation overnight at 4 °C. For investigation of the binding properties to the hexapeptide, 5 μM PHF6 was coated overnight. After three times washing with 300 μl phosphate-buffered saline with Tween20 (PBST: PBS with 0.1 % [v/v] Tween20), the plate was blocked with 3 % [w/v] BSA in PBS for 1 h at RT, followed by further washing steps. […] The plate was washed three times with PBST before 100 μl sheep anti-fluorescein isothiocyanate (FITC) HRP-conjugate (1:5000 dilution in PBST; AbD Serotec, Puchheim, Germany) was added and incubated for 1 h at RT with gentle agitation. Again, the plate was washed for three times, followed by addition of the TMB substrate. The reaction was stopped with 20 % [v/v] H2SO4 and absorbance was measured at 450 nm.
# [6] = system: Tau; details: PHF6 addressing peptide; read-out: Inhibition of fibrillization of Tau (compared with the IC50 of ISAD1); cited from earlier work
# Description: Aggregation of Tau is the primary hallmark for the disease pathology in AD and other tauopathies. A significant inhibition of the aggregation by therapeutic molecules is considered beneficial. Our novel peptide ISAD1 inhibited the fibrillization of Tau^FL and pro-aggregant Tau^RDΔK (IC50 of ~3 μM) in concentrations which are typical for peptide inhibitors.
compound,measurement,setting,value
CC(C)C[C@@H](NC(=O)[C@@H](CCCCN)NC(=O)[C@@H](Cc1ccccc1)NC(=O)[C@H](NC(=O)[C@H](N)CO)C(C)C)C(=O)N[C@H](CO)C(=O)N[C@H](CC(C)C)C(=O)N[C@@H](C(=O)N[C@H](CC(=O)O)C(=O)N[C@H](C)C(=O)N[C@H](C)C(=O)N[C@H](CO)C(=O)O)[C@H](C)O [ISAD1] (H-[dS][dV][dF][dK][dL][dS][dL][dT][dD][dA][dA][dS]-OH),Intracellular localisation,[1],accumulated in the cytosol but were excluded from the nucleus
same,Uptake by cells,[1],almost all cells took up the D-peptides
same,"Cytotoxicity, MTT",[2],do not induce toxic effects
same,"Cytotoxicity, LDH release",[3],do not induce toxic effects
"SASVTSKFDALL [ISAL1sam, scrambled L-amino acid variant of ISAL1, control peptide]","Inhibition of Tau^FL fibrillization, in words",[4]; ThT assay,did not inhibit
same,Inhibition of Tau^FL aggregation,[4]; ThT fibrillization assay,-
same,"Binding to Tau^FL in ELISA, in words",[5],no significant binding
TLKIVW,IC50,[6],54.1 µM
